Several values for one entry are separate records, joined by “and”; a condition that tells them apart may be missing. Identical values can stand only once. Like-named read-outs stand apart in the source and are kept apart here.
Experiments:
human α-thrombin = human α-thrombin (Homo sapiens, UniProt P00734); assay: Protease inhibition, Ki for human α-thrombin (fluorogenic substrate Z-Gly-Gly-Arg-AMC); type: biochemical; conditions: human alpha thrombin; for Slope normalized to DMSO (proteolytic substrate cleavage over time): replicates R1-R3
Summary of the method: (§1)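 Ki values come from Cheng–Prusoff correction of IC50, itself fitted by four-parameter logistic regression of activity versus a no-peptide control. Assays used 2 nM human or 3 nM rat thrombin, 50 μM Z-Gly-Gly-Arg-AMC, 30 min kinetic fluorescence at 25 °C.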

rat α-thrombin = target: T1, rat α-thrombin (Rattus norvegicus, UniProt P18292); assay: Protease inhibition, Ki for rat α-thrombin (fluorogenic substrate Z-Gly-Gly-Arg-AMC); type: biochemical; conditions: rat alpha thrombin; for Slope normalized to DMSO (proteolytic substrate cleavage over time): replicates R1-R3
T1 construct: rat α-thrombin (Molecular Innovations) were used at final concentrations of 2 nM and 3 nM; purchased Molecular Innovations
Summary of the method: as §1

porcine pepsin = target: T2, porcine pepsin (Sus scrofa, UniProt P00791); assay: Peptide stability in simulated gastric fluid (SGF); type: in vitro ADME
T2 construct: 0.32 g of porcine pepsin (Sigma-Aldrich, P7125) was dissolved under gentle agitation; purchased Sigma-Aldrich P7125
T2 sequence (P00791 60-385): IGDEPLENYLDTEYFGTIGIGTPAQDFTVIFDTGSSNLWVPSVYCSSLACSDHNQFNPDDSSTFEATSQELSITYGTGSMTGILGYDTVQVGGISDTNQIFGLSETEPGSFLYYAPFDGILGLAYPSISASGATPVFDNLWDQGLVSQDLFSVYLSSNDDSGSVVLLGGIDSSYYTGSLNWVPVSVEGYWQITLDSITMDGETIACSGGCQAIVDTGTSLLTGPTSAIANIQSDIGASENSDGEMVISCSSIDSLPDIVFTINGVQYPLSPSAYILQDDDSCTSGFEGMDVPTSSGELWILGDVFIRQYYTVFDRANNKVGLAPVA
Summary of the method: (§2)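 Peptide from a 1 mM DMSO stock was added to fluid pre-warmed at 37 °C. SGF was pH 1.2 NaCl with porcine pepsin (0.32 g per 100 ml), and SIF was pH 6.8 potassium phosphate with porcine pancreatin (1 g per 100 ml). Supernatant peptide was quantified by LC–MS, with residual expressed as T1/T0.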

[1] = Peptide stability in simulated intestinal fluid (SIF); type: in vitro ADME, porcine; design: remaining at 8 h: dose or concentration left out as unconfirmed; conditions: pH 6.8
Summary of the method: as §2

porcine pancreatin = assay: as above; type: in vitro ADME; design: remaining at 8 h: dose or concentration left out as unconfirmed; conditions: after 8 h vs 0 h (TIC); single replicates R1-R3
Summary of the method: as §2

[2] = Passive artificial membrane permeability (PAMPA)

O=C1C[C@H]2CCCN2C(=O)[C@H](Cc2ccccc2)NC(=O)[C@@H](NC(=O)c2ccc(Cl)s2)CCCSCc2cccc(n2)CSCCN1 [compound 35]
Ki (human α-thrombin; average of R1-R3, read-out: Ki Average, human alpha thrombin inhibition): 62.8 nM | Slope normalized to DMSO (proteolytic substrate cleavage over time) (human α-thrombin; peptide 1.02E-03 uM): 93.6 and 100.9 and 97.6 | Slope normalized to DMSO (proteolytic substrate cleavage over time) (human α-thrombin; peptide 1.04E+00 uM): 8.6 and 16.9 and 12.9 | Slope normalized to DMSO (proteolytic substrate cleavage over time) (human α-thrombin; peptide 1.27E-04 uM): 93.4 and 102.6 and 100.9 | Slope normalized to DMSO (proteolytic substrate cleavage over time) (human α-thrombin; peptide 1.30E-01 uM): 39.5 and 49.3 and 44.8 | Slope normalized to DMSO (proteolytic substrate cleavage over time) (human α-thrombin; peptide 1.59E-05 uM): 106.2 and 101.5 and 96.8 | Slope normalized to DMSO (proteolytic substrate cleavage over time) (human α-thrombin; peptide 1.63E-02 uM): 75.0 and 77.8 and 78.6 | Slope normalized to DMSO (proteolytic substrate cleavage over time) (human α-thrombin; peptide 1.67E+01 uM): -7.7 and 7.5 and 5.3 | Slope normalized to DMSO (proteolytic substrate cleavage over time) (human α-thrombin; peptide 2.03E-03 uM): 88.5 and 91.4 and 92.0 | Slope normalized to DMSO (proteolytic substrate cleavage over time) (human α-thrombin; peptide 2.08E+00 uM): 6.1 and 11.4 and 10.4 | Slope normalized to DMSO (proteolytic substrate cleavage over time) (human α-thrombin; peptide 2.54E-04 uM): 95.8 and 99.6 and 97.3 | Slope normalized to DMSO (proteolytic substrate cleavage over time) (human α-thrombin; peptide 2.60E-01 uM): 30.6 and 32.4 and 32.2 | Slope normalized to DMSO (proteolytic substrate cleavage over time) (human α-thrombin; peptide 3.18E-05 uM): 97.7 and 98.2 and 93.3 | Slope normalized to DMSO (proteolytic substrate cleavage over time) (human α-thrombin; peptide 3.26E-02 uM): 69.6 and 73.9 and 66.3 | Slope normalized to DMSO (proteolytic substrate cleavage over time) (human α-thrombin; peptide 3.33E+01 uM): 2.9 and 7.3 and 3.8 | Slope normalized to DMSO (proteolytic substrate cleavage over time) (human α-thrombin; peptide 4.07E-03 uM): 82.9 and 85.6 and 85.5 | Slope normalized to DMSO (proteolytic substrate cleavage over time) (human α-thrombin; peptide 4.17E+00 uM): 2.6 and 6.0 and 6.1 | Slope normalized to DMSO (proteolytic substrate cleavage over time) (human α-thrombin; peptide 5.09E-04 uM): 91.0 and 91.5 and 96.2 | Slope normalized to DMSO (proteolytic substrate cleavage over time) (human α-thrombin; peptide 5.21E-01 uM): 17.9 and 15.7 and 18.4 | Slope normalized to DMSO (proteolytic substrate cleavage over time) (human α-thrombin; peptide 6.36E-05 uM): 96.3 and 98.6 and 101.5 | Slope normalized to DMSO (proteolytic substrate cleavage over time) (human α-thrombin; peptide 6.51E-02 uM): 47.1 and 63.8 and 53.5 | Slope normalized to DMSO (proteolytic substrate cleavage over time) (human α-thrombin; peptide 6.67E+01 uM): 2.7 and 9.5 and 7.0 | Slope normalized to DMSO (proteolytic substrate cleavage over time) (human α-thrombin; peptide 7.95E-06 uM): 96.2 and 102.7 and 103.6 | Slope normalized to DMSO (proteolytic substrate cleavage over time) (human α-thrombin; peptide 8.14E-03 uM): 70.3 and 73.9 and 78.9 | Slope normalized to DMSO (proteolytic substrate cleavage over time) (human α-thrombin; peptide 8.33E+00 uM): 3.3 and 5.4 and 3.6 | IC50 (human α-thrombin; single replicates R1-R3, read-out: IC50, human alpha thrombin inhibition): 77.8 nM and 89.4 nM and 77.2 nM | Ki (human α-thrombin; single replicates R1-R3, read-out: Ki, human alpha thrombin inhibition): 59.9 nM (2×) and 68.9 nM (2×) and 59.5 nM (2×) | Ki (rat α-thrombin; average of R1-R3, read-out: Ki Average, rat alpha thrombin inhibition): 18.4 nM | Slope normalized to DMSO (proteolytic substrate cleavage over time) (rat α-thrombin; peptide 1.02E-03 uM): 95.3 and 93.5 and 90.4 | Slope normalized to DMSO (proteolytic substrate cleavage over time) (rat α-thrombin; peptide 1.04E+00 uM): 8.6 and 8.7 and 5.7 | Slope normalized to DMSO (proteolytic substrate cleavage over time) (rat α-thrombin; peptide 1.27E-04 uM): 96.6 and 98.1 and 94.9 | Slope normalized to DMSO (proteolytic substrate cleavage over time) (rat α-thrombin; peptide 1.30E-01 uM): 29.1 and 30.9 and 27.9 | Slope normalized to DMSO (proteolytic substrate cleavage over time) (rat α-thrombin; peptide 1.59E-05 uM): 99.9 and 100.8 and 98.0 | Slope normalized to DMSO (proteolytic substrate cleavage over time) (rat α-thrombin; peptide 1.63E-02 uM): 66.4 and 67.5 and 64.5 | Slope normalized to DMSO (proteolytic substrate cleavage over time) (rat α-thrombin; peptide 1.67E+01 uM): 5.5 and 6.4 and 3.4 | Slope normalized to DMSO (proteolytic substrate cleavage over time) (rat α-thrombin; peptide 2.03E-03 uM): 85.0 and 86.2 and 80.9 | Slope normalized to DMSO (proteolytic substrate cleavage over time) (rat α-thrombin; peptide 2.08E+00 uM): 8.2 and 8.0 and 6.0 | Slope normalized to DMSO (proteolytic substrate cleavage over time) (rat α-thrombin; peptide 2.54E-04 uM): 94.8 and 90.7 and 91.8 | Slope normalized to DMSO (proteolytic substrate cleavage over time) (rat α-thrombin; peptide 2.60E-01 uM): 20.1 and 21.2 and 15.6 | Slope normalized to DMSO (proteolytic substrate cleavage over time) (rat α-thrombin; peptide 3.18E-05 uM): 99.5 and 101.3 and 96.2 | Slope normalized to DMSO (proteolytic substrate cleavage over time) (rat α-thrombin; peptide 3.26E-02 uM): 58.6 and 59.5 and 55.9 | Slope normalized to DMSO (proteolytic substrate cleavage over time) (rat α-thrombin; peptide 3.33E+01 uM): 4.9 and 6.5 and 3.7 | Slope normalized to DMSO (proteolytic substrate cleavage over time) (rat α-thrombin; peptide 4.07E-03 uM): 77.2 and 73.8 and 74.9 | Slope normalized to DMSO (proteolytic substrate cleavage over time) (rat α-thrombin; peptide 4.17E+00 uM): 6.8 (2×) and -8.2 | Slope normalized to DMSO (proteolytic substrate cleavage over time) (rat α-thrombin; peptide 5.09E-04 uM): 92.2 and 90.6 and 87.0 | Slope normalized to DMSO (proteolytic substrate cleavage over time) (rat α-thrombin; peptide 5.21E-01 uM): 12.0 and 12.9 and 10.7 | Slope normalized to DMSO (proteolytic substrate cleavage over time) (rat α-thrombin; peptide 6.36E-05 uM): 97.8 and 99.0 and 94.4 | Slope normalized to DMSO (proteolytic substrate cleavage over time) (rat α-thrombin; peptide 6.51E-02 uM): 36.9 and 38.0 and 37.1 | Slope normalized to DMSO (proteolytic substrate cleavage over time) (rat α-thrombin; peptide 6.67E+01 uM): 5.7 and 6.9 and 3.2 | Slope normalized to DMSO (proteolytic substrate cleavage over time) (rat α-thrombin; peptide 7.95E-06 uM): 102.6 and 104.4 and 98.4 | Slope normalized to DMSO (proteolytic substrate cleavage over time) (rat α-thrombin; peptide 8.14E-03 uM): 67.4 and 67.8 and 64.3 | Slope normalized to DMSO (proteolytic substrate cleavage over time) (rat α-thrombin; peptide 8.33E+00 uM): 6.5 and 6.4 and -9.8 | IC50 (rat α-thrombin; single replicates R1-R3, read-out: IC50, rat alpha thrombin inhibition): 31.1 nM and 30.7 nM and 37.8 nM | Ki (rat α-thrombin; single replicates R1-R3, read-out: Ki, rat alpha thrombin inhibition): 17.2 nM (2×) and 17 nM (2×) and 20.9 nM (2×) | SGF stability, Residual peptide Average (porcine pepsin; after 8 h vs 0 h (TIC), average of R1-R3): 98.71 | SGF stability, Residual peptide (porcine pepsin; after 8 h vs 0 h (TIC), single replicates R1-R3): 102.19 and 96.66 and 97.27 | remaining at 8 h (porcine pepsin; simulated gi fluid, 8 h, 37 °C, pH 1.2, read-out: Proteolytic stability: SGF (8 h) % remaining): 99 ± 3% | remaining at 8 h ([1]; pig, after 8 h vs 0 h (TIC), average of R1-R3, read-out: SIF stability, Residual peptide Average): 31.4% | remaining at 8 h ([1]; simulated gi fluid, 8 h, 37 °C, read-out: Proteolytic stability: SIF (8 h) % remaining): 31 ± 3% | SIF stability, Residual peptide (porcine pancreatin): 32.04 and 28.68 and 33.58 | PAMPA permeability: % permeability ([2]; 50 μM, 12–18 h, acceptor concentration relative to equilibrium): 21 ± 8% | Papp at 50 μM ([2]; PAMPA, pH 7.4): 2.24 ×10⁻⁶ cm/s | Permeability% Average ([2]; top well sample vs theoretical equilibrium sample (TIC), average of R1-R3): 21.1% | Permeability% ([2]; top well sample vs theoretical equilibrium sample (TIC), single replicates R1-R3): 16.62% and 15.98% and 30.80%

From publication PMC11062899, “De novo development of small cyclic peptides that are orally bioavailable” (Nature Chemical Biology, 2023)
